This note sets out measurements from patent publication US11345912B2, “Directed evolution of multivalent glycopeptides that tightly bind to target proteins” (Brandeis University, priority 2013, dated 2022).

The assay deals with 2G12. The assay is described as follows: Binding curve and KD determination of 2G12-glycopeptide interaction (radiolabeled glycopeptide, protein G magnetic bead capture, scintillation counting). On the procedure: The resulting mRNAs were purified by denaturing PAGE or MEGAclear kit (Ambion), and 1 μM RNA was used in PURE system translation (reaction volume of translation varied). Typically, 25 μL of translated reaction was diluted with 100 μL of binding buffer (50 mM Tris-HCl, pH 7.8, 300 mM NaCl, 5 mM β-mercaptoethanol) and 25 μL of Ni-NTA agarose suspension (Qiagen), and tumbled at room temperature for 1 h. The resins were transferred to 0.22 μm spin-filter rinsing with 100 μL of bind buffer, and washed with 3×200 μL of bind buffer and 2×200 μL of wash buffer (50 mM Tris-HCl, pH 7.8, 5 mM β-mercaptoethanol). The bound peptides were eluted with 2×25 μL of 0.1% TFA. The eluted peptides were analyzed by MALDI-TOF MS, using α-Cyano-4-hydroxycinnamic acid matrix (Sigma), with or without desalting with ZipTip C18 resin (Millipore). For calibration of MALDI-TOF-MS, at least two of the following standards, bovine insulin, E. coli thioredoxin and/or horse apomyoglobin were used. To quantitate peptide yields, the radioactivities were measured by liquid scintillation counting. For the click reaction, the translated and purified peptides were mixed with 0.1% (v/v) Triton X-100, and then dialyzed against H2O containing 0.1% (v/v) Triton X-100 using Slide-A-Lyzer MINI Dialysis Devices, 3.5K MWCO (Thermo Scientific) overnight to desalt. After dialysis, the peptides were divided into two portions: one was glycosylated via the click reaction, while the other was saved as a non-glycosylated peptide control. […] The glycosylated peptide (<4 pmol) was incubated with 100 nM 2G12 in selection buffer (40 μL) at room temp. The solution was then tumbled 30 min with 0.12 mg of equilibrated Dynabeads Protein G to capture 2G12-glycopeptide complex. Beads were then washed with 3×40 μL of selection buffer and resuspended in 10 μL of selection buffer. The resuspended beads were heated at 70° C. for 30 min to denature 2G12 and elute glycopeptides, chilled on ice for 5 min, and tumbled at room temperature for 10 min. The magnetically isolated supernatant was recovered and the beads were rinsed with 10 μL of selection buffer.
Then, the solution was added to 0.12 mg of pre-equilibrated Dynabeads Protein G and tumbled at room temperature for 30 min. The supernatant was removed and the beads were washed with 3×40 μL of selection buffer. The radioactivities of the supernatant and wash solutions were measured by liquid scintillation counting as unbound fractions. […] The beads were resuspended in 40 μL of selection buffer, heated at 70° C. for 30 min to elute the bound glycopeptides, chilled on ice for 5 min, and tumbled at room temperature for 10 min. The supernatant was removed, and the beads were washed with 40 μL of selection buffer and resuspended in 40 μL of selection buffer. The radioactivities of these solutions and suspensions were measured by liquid scintillation counting separately and the values were combined as apparent bound fractions. […] All experiments were done at least in triplicate. KDs were calculated as described in the footnote of Table 4 (below).

`CC[C@H](C)[C@H](NC(=O)[C@H](CC(=O)O)NC(=O)[C@@H]1CCCN1C(=O)[C@H](C)NC(=O)[C@H](C)NC(=O)[C@H](CO)NC(=O)[C@@H](NC(=O)[C@@H]1CCCN1C(=O)[C@H](Cc1c[nH]cn1)NC(=O)[C@H](CCc1cn(C2CCC(OC3O[C@H](CO[C@H]4O[C@H](CO[C@H]5O[C@H](CO)[C@@H](O)[C@H](O)[C@@H]5O[C@H]5O[C@H](CO)[C@@H](O)[C@H](O)[C@@H]5O)[C@@H](O)[C@H](O[C@H]5O[C@H](CO)[C@@H](O)[C@H](O)[C@@H]5O[C@H]5O[C@H](CO)[C@@H](O)[C@H](O)[C@@H]5O)[C@@H]4O)[C@@H](O)[C@H](O[C@H]4O[C@H](CO)[C@@H](O)[C@H](O)[C@@H]4O[C@H]4O[C@H](CO)[C@@H](O)[C@H](O)[C@@H]4O[C@H]4O[C@H](CO)[C@@H](O)[C@H](O)[C@@H]4O)[C@@H]3O)CC2)nn1)NC(=O)[C@H](C)NC(=O)[C@H](Cc1c[nH]cn1)NC(=O)[C@H](Cc1ccccc1)NC(=O)[C@H](Cc1ccc(O)cc1)NC(=O)[C@H](Cc1c[nH]cn1)NC(=O)[C@H](C)NC(=O)[C@H](CO)NC(=O)[C@H](CCCNC(=N)N)NC(=O)[C@H](CO)NC(=O)[C@H](CC(C)C)NC(=O)[C@H](CCc1cn(C2CCC(OC3O[C@H](CO[C@H]4O[C@H](CO[C@H]5O[C@H](CO)[C@@H](O)[C@H](O)[C@@H]5O[C@H]5O[C@H](CO)[C@@H](O)[C@H](O)[C@@H]5O)[C@@H](O)[C@H](O[C@H]5O[C@H](CO)[C@@H](O)[C@H](O)[C@@H]5O[C@H]5O[C@H](CO)[C@@H](O)[C@H](O)[C@@H]5O)[C@@H]4O)[C@@H](O)[C@H](O[C@H]4O[C@H](CO)[C@@H](O)[C@H](O)[C@@H]4O[C@H]4O[C@H](CO)[C@@H](O)[C@H](O)[C@@H]4O[C@H]4O[C@H](CO)[C@@H](O)[C@H](O)[C@@H]4O)[C@@H]3O)CC2)nn1)NC(=O)[C@H](CC(C)C)NC(=O)[C@H](Cc1ccccc1)NC(=O)[C@H](C)NC(=O)[C@@H]1CCCN1C(=O)[C@H](CO)NC(=O)[C@@H]1CCCN1C(=O)[C@H](CS)NC(=O)[C@H](C)NC(=O)[C@@H](NC(=O)[C@H](CCC(N)=O)NC(=O)[C@H](CCc1cn(C2CCC(OC3O[C@H](CO[C@H]4O[C@H](CO[C@H]5O[C@H](CO)[C@@H](O)[C@H](O)[C@@H]5O[C@H]5O[C@H](CO)[C@@H](O)[C@H](O)[C@@H]5O)[C@@H](O)[C@H](O[C@H]5O[C@H](CO)[C@@H](O)[C@H](O)[C@@H]5O[C@H]5O[C@H](CO)[C@@H](O)[C@H](O)[C@@H]5O)[C@@H]4O)[C@@H](O)[C@H](O[C@H]4O[C@H](CO)[C@@H](O)[C@H](O)[C@@H]4O[C@H]4O[C@H](CO)[C@@H](O)[C@H](O)[C@@H]4O[C@H]4O[C@H](CO)[C@@H](O)[C@H](O)[C@@H]4O)[C@@H]3O)CC2)nn1)NC=O)[C@@H](C)O)[C@@H](C)O)C(=O)N[C@@H](CO)C(=O)NCC(=O)N[C@@H](CO)C(=O)NCC(=O)N[C@@H](CO)C(=O)N[C@@H](CC(C)C)C(=O)NCC(=O)N[C@@H](Cc1c[nH]cn1)C(=O)N[C@@H](Cc1c[nH]cn1)C(=O)N[C@@H](Cc1c[nH]cn1)C(=O)N[C@@H](Cc1c[nH]cn1)C(=O)N[C@@H](Cc1c[nH]cn1)C(=O)N[C@@H](Cc1c[nH]cn1)C(=O)N[C@@H](CCCNC(=N)N)C(=O)N[C@@H](CC(=O)O)C(=O)N[C@@H](Cc1ccc(O)cc1)C(=O)N[C@@H](CCCCN)C(=O)N[C@@H](CC(=O)O)C(=O)N[C@@H](CC(=O)O)C(=O)N[C@@H](CC(=O)O)C(=O)N[C@@H](CC(=O)O)C(=O)N[C@@H](CCCCN)C(=O)O` (stereo partly shown) [Clone 6E, XQTACPSPAFLXLSRSAHYFHAXHPTSAAPDIS] displayed a Kd (Table 4, ribosomally translated radiolabeled glycopeptide with His6/FLAG tag, room temperature, fit Fbound=(Fmax[2G12])/(KD+[2G12]), error = standard error of fit) of more than 128 nM.
For `CC[C@H](C)[C@H](NC(=O)[C@H](CCCNC(=N)N)NC(=O)[C@H](Cc1c[nH]cn1)NC(=O)[C@H](Cc1ccccc1)NC(=O)[C@H](CC(C)C)NC(=O)[C@H](C)NC(=O)[C@H](CC(C)C)NC(=O)[C@H](C)NC(=O)[C@H](Cc1ccc(O)cc1)NC(=O)[C@H](CCc1cn(C2CCC(OC3O[C@H](CO[C@H]4O[C@H](CO[C@H]5O[C@H](CO)[C@@H](O)[C@H](O)[C@@H]5O[C@H]5O[C@H](CO)[C@@H](O)[C@H](O)[C@@H]5O)[C@@H](O)[C@H](O[C@H]5O[C@H](CO)[C@@H](O)[C@H](O)[C@@H]5O[C@H]5O[C@H](CO)[C@@H](O)[C@H](O)[C@@H]5O)[C@@H]4O)[C@@H](O)[C@H](O[C@H]4O[C@H](CO)[C@@H](O)[C@H](O)[C@@H]4O[C@H]4O[C@H](CO)[C@@H](O)[C@H](O)[C@@H]4O[C@H]4O[C@H](CO)[C@@H](O)[C@H](O)[C@@H]4O)[C@@H]3O)CC2)nn1)NC(=O)[C@H](CC(=O)O)NC(=O)[C@@H](NC(=O)[C@@H](NC(=O)[C@H](CCC(N)=O)NC(=O)[C@H](CCc1cn(C2CCC(OC3O[C@H](CO[C@H]4O[C@H](CO[C@H]5O[C@H](CO)[C@@H](O)[C@H](O)[C@@H]5O[C@H]5O[C@H](CO)[C@@H](O)[C@H](O)[C@@H]5O)[C@@H](O)[C@H](O[C@H]5O[C@H](CO)[C@@H](O)[C@H](O)[C@@H]5O[C@H]5O[C@H](CO)[C@@H](O)[C@H](O)[C@@H]5O)[C@@H]4O)[C@@H](O)[C@H](O[C@H]4O[C@H](CO)[C@@H](O)[C@H](O)[C@@H]4O[C@H]4O[C@H](CO)[C@@H](O)[C@H](O)[C@@H]4O[C@H]4O[C@H](CO)[C@@H](O)[C@H](O)[C@@H]4O)[C@@H]3O)CC2)nn1)NC(=O)[C@H](CCCCN)NC(=O)[C@H](CC(C)C)NC(=O)[C@H](C)NC(=O)[C@H](C)NC(=O)[C@H](CCc1cn(C2CCC(OC3O[C@H](CO[C@H]4O[C@H](CO[C@H]5O[C@H](CO)[C@@H](O)[C@H](O)[C@@H]5O[C@H]5O[C@H](CO)[C@@H](O)[C@H](O)[C@@H]5O)[C@@H](O)[C@H](O[C@H]5O[C@H](CO)[C@@H](O)[C@H](O)[C@@H]5O[C@H]5O[C@H](CO)[C@@H](O)[C@H](O)[C@@H]5O)[C@@H]4O)[C@@H](O)[C@H](O[C@H]4O[C@H](CO)[C@@H](O)[C@H](O)[C@@H]4O[C@H]4O[C@H](CO)[C@@H](O)[C@H](O)[C@@H]4O[C@H]4O[C@H](CO)[C@@H](O)[C@H](O)[C@@H]4O)[C@@H]3O)CC2)nn1)NC(=O)[C@H](CCc1cn(C2CCC(OC3O[C@H](CO[C@H]4O[C@H](CO[C@H]5O[C@H](CO)[C@@H](O)[C@H](O)[C@@H]5O[C@H]5O[C@H](CO)[C@@H](O)[C@H](O)[C@@H]5O)[C@@H](O)[C@H](O[C@H]5O[C@H](CO)[C@@H](O)[C@H](O)[C@@H]5O[C@H]5O[C@H](CO)[C@@H](O)[C@H](O)[C@@H]5O)[C@@H]4O)[C@@H](O)[C@H](O[C@H]4O[C@H](CO)[C@@H](O)[C@H](O)[C@@H]4O[C@H]4O[C@H](CO)[C@@H](O)[C@H](O)[C@@H]4O[C@H]4O[C@H](CO)[C@@H](O)[C@H](O)[C@@H]4O)[C@@H]3O)CC2)nn1)NC=O)C(C)C)[C@@H](C)O)C(=O)N[C@@H](CC(C)C)C(=O)NCC(=O)N[C@@H](CO)C(=O)NCC(=O)N[C@@H](CO)C(=O)N[C@@H](CC(C)C)C(=O)NCC(=O)N[C@@H](Cc1c[nH]cn1)C(=O)N[C@@H](Cc1c[nH]cn1)C(=O)N[C@@H](Cc1c[nH]cn1)C(=O)N[C@@H](Cc1c[nH]cn1)C(=O)N[C@@H](Cc1c[nH]cn1)C(=O)N[C@@H](Cc1c[nH]cn1)C(=O)N[C@@H](CCCNC(=N)N)C(=O)N[C@@H](CC(=O)O)C(=O)N[C@@H](Cc1ccc(O)cc1)C(=O)N[C@@H](CCCCN)C(=O)N[C@@H](CC(=O)O)C(=O)N[C@@H](CC(=O)O)C(=O)N[C@@H](CC(=O)O)C(=O)N[C@@H](CC(=O)O)C(=O)N[C@@H](CCCCN)C(=O)O` (stereo partly shown) [Clone 10F2-Δ11, XXAALKXQVTDXYALALFHRIL], the “Fmax [%]” value (Table 6 mutational analysis, radioactive bead binding assay) turned out to be 70%. For the setting “Table 6 mutational analysis, radioactive bead binding assay, ribosomally translated”, the dissociation constant (Kd) is 0.89 nM. In addition, under “truncated clones, Table 6”, the “binding to 2G12 after truncation (in words)” value is reported as “tight binding”.
